One molecule from patent US20030157704A1, “Reagents and methods for identifying and modulating expression of genes regulated by CDK inhibitors” (priority 2001, published 2003) can be followed below.

Holding throughout (assay type): cell-based, human
One experiment concerns NK4 promoter. As to the kind of experiment: Luciferase assay in LuNK4p21 cell line (NK4 promoter-luciferase, IPTG-inducible p21). The method, then: This assay was performed as follows. Cells were plated at a density of 40,000 cells/well in 12 well plates in 1 mL of media containing penicillin/streptomycin, glutamine and 10% fetal calf serum (FCS). After attachment, cells were treated with 50 μM IPTG or left untreated for different periods of time. Luciferase activity was then measured as described in Example 8 above. An additional aliquot was removed from the cell lysate to measure protein concentration using the Bio-Rad protein assay kit (Bradford assay). Luciferase activity for each sample was normalized to protein content and expressed as luciferase activity/μg protein.
Luciferase assays were performed substantially as described in Example 9. Luciferase activity was measured after 16 hrs of incubation with or without 50 μM IPTG, followed by an additional 20 hr treatment in the presence or in the absence of 20 mM sodium salicylate, 1 mM sulindac, or 10 mM aspirin. […] NSAID concentrations were based on the pharmacologic concentrations of these agents in the serum of patients required for their anti-inflammatory properties (Yin et al., 1998, ibid.).

For another experiment, the system named is NFκB-dependent promoter. The experiment is described as follows: Transient transfection of pNFkB-Luc into HT1080 p21-9 cells, firefly luciferase. Conditions: different concentrations of IPTG. The text has this:
To determine if IPTG-inducible p21 expression in HT1080 p21-9 cells stimulates the transcriptional activity of NFκB, we have used transient transfection assays to investigate the effect of p21 induction on luciferase expression from the plasmid pNFkB-Luc, commercially available from Stratagene. This plasmid expresses firefly luciferase from an artificial promoter containing five tandemly repeated NFκB consensus sequences. We have also generated by PCR a version of the same promoter that contains only one NFκB consensus sequence using primers identified as SEQ ID Nos. 80 and 83. The sequences of these two promoters are identified as SEQ ID NOs. 78 and 79.
The ability of p21 to induce these promoters was tested by transient transfection assays, as described in Example 8, using different concentrations of IPTG that induce p21 to different levels.
This plasmid is referred to below as IKK. To determine the effect of p300/CBP inhibition on luciferase expression from pNFkB-Luc, the latter plasmid was similarly mixed in another assay with a vector expressing a truncated gene for adenoviral E1A protein with a C-terminal deletion {ΔCR2 (120-140)}. […] The E1AΔCR2 and E1AΔN/ΔCR2 constructs were provided by Dr. V. Ogryzko (NICHHD, NIH). […] The firefly luciferase activity was measured and normalized to Renilla luciferase activity measured (in the absence of IPTG) in each transfected sample.

A further experiment concerns HT1080 p21-9 cells. The experiment is described as follows: Cell cycle distribution by FACS analysis of DNA content. Conditions: 24 hrs of IPTG treatment. As for the experimental part:
Cell cycle distribution was determined using FACS analysis of DNA content after staining with propidium iodide as described by Jordan et al. (1996, Cancer Res. 56: 816-825) using Becton Dickinson FACSort. Cell cycle distribution stabilized after 24 hrs of IPTG treatment. By this time, 42-43% of IPTG-treated cells were arrested in G1 and G2, respectively, and about 15% of the cells were arrested with S-phase DNA content. IPTG-treated HT1080 p21-9 cells also developed morphological senescence markers (enlarged and flattened morphology and increased granularity), as well as SA-β-gal activity (Chang et al., 1999, ibid.).

The next experiment has as its system HT1080 p16-5 cells. The description is as above. The settings on record: 50 μM IPTG, 24 hrs. The method, then: (§1) This cell population was subcloned, and 20 clonal cell lines were isolated and tested for IPTG-inducible growth inhibition. Cell line showing the strongest growth inhibition was designated HT1080 p16-5. This cell line has been deposited on Jan. 31, 2002 in the American Type Culture Collection (A.T.C.C.), Manassas, Va. and given Accession Number PTA-4020. […] Fractions of cells in different phases of the cell cycle were determined using FACS analysis of DNA content after staining with propidium iodide as described by Jordan et al. (1996, Cancer Res. 56:816-825) using Becton Dickinson FACSort. Cell cycle distribution stabilized after 24 hrs of IPTG treatment, by which time 93% of IPTG-treated cells were arrested in G1. Such G1 arrest is expected from the inhibition of CDK4/6 by p16.

The subject of another experiment is HT1080 p27-2 cells. The description is as above. The settings on record: 50 μM IPTG, 24 hrs. The method, then:
as §1
Similarly, the G418-selected population of LNp27RO2 transduced cells was subcloned, and 38 clonal cell lines were isolated and tested for IPTG-inducible growth inhibition. Cell line showing the strongest growth inhibition was designated HT1080 p27-2. This cell line has been deposited on Jan. 31, 2002 in the American Type Culture Collection (A.T.C .C.), Manassas, Va. and given Accession Number PTA-4021. […] Cell cycle distribution stabilized after 24 hrs of IPTG treatment, by which time 89% of IPTG-treated cells were arrested in G1. Such G1 arrest is expected from the inhibition of CDK4/6 by p16.

A further experiment concerns p21. As to the kind of experiment: p21 protein level after IPTG induction (ELISA). As for the experimental part: FIG. 2A is a graph of the time course of p21 induction after the addition of 50 μM IPTG, where p21 levels were determined by ELISA.
p21 expression from the LNp21CO3 vector in HT1080 p21-9 cells was induced by culturing the cells in DMEM medium containing 10% fetal calf serum (Hyclone, Logan, Utah) and IPTG. […] Upon removing the cells from IPTG-containing media, p21 expression fell about as rapidly as it had risen, returning to pre-induction levels at about 24 hours after IPTG was removed (FIG. 2B).
Background: ELISA stands for enzyme-linked immunosorbent assay.

Regarding `CC(C)S[C@@H]1O[C@H](CO)[C@H](O)[C@H](O)[C@H]1O` [IPTG, isopropyl-β-thiogalactoside], the “treatment period at which most of the induction is achieved” value with NK4 promoter (50 μM IPTG) worked out at 17 h. Further, the “increase of luciferase expression” value in the experiment on NK4 promoter (50 μM IPTG, absence of NSAID) is 3-4 fold. The “IPTG concentration at which most of the induction is achieved” value in the experiment with NK4 promoter (24 hrs of IPTG treatment) was 5 µM. For the same molecule, the “increase in luciferase levels in IPTG-treated cells” value in the experiment on NK4 promoter (LuNK4p21 cell line) is listed as “approximately 3 fold”. Further, the “induction of promoters containing five or one NFκB site” value in the experiment with NFκB-dependent promoter was “dose-dependent induction”. In the experiment on HT1080 p21-9 cells, the “cells arrested in G1 and G2, respectively” value is recorded as 42-43%; the “cells arrested with S-phase DNA content” value is on record as “about 15%”. In the experiment on HT1080 p16-5 cells, the “cells arrested in G1” value is given as 93%. Also, the “cells arrested in G1” value in the experiment on HT1080 p27-2 cells turned out to be 89%. In the experiment with p21 (50 μM IPTG), the “time of peak p21 expression post-induction” value is on record as “about 24 hours”. Besides, the “increase of p21 levels in IPTG-treated cells” value in the experiment with p21 (HT1080 p21-9 cells) is reported as 15-20 fold.
